Data published in patent publication US20200397718A1, “USE OF HYDROXYTYROSOL ACETATE IN IMPROVING FUNCTION OF AORTIC ENDOTHELIAL CELL” (XI'AN JIAOTONG UNIVERSITY, priority 2019, published 2020).

Assays:
[1] = tested on: IL-6, MMP-1, ICAM-1 and PAI-1 mRNA in human aortic endothelial cells; assay: mRNA levels of IL-6, MMP-1, ICAM-1 and PAI-1 (RT-PCR) in palmitic acid-induced inflammation of HAECs; type: cell-based
Procedure: (§1) Human aortic endothelial cells (HAECs) were purchased from Shanghai Shanghai Bioleaf Biotech Co., Ltd. Palmitic acid (PA) was purchased from SIGMA Company. A palmitic acid solution having a concentration of 500 μM was prepared by dissolving palmitic acid in water. A cell culture incubator was adopted to culture the cells in a temperature-constant, humidified, sterile condition. The cells were cultured in wells of culture plates at an atmosphere of 95% air and 5% CO2 at 37° C. in the incubator. The experiments were performed on different experimental groups of cells. The experiments were performed on three experimental groups of cells: (1) control group; (2) 500 μM palmitic acid treatment group; and (3) hydroxytyrosol acetate protection group.
(§2) The HAECs that were previously cultured in a 12-well cell culture plate were divided into 5 different experimental groups and respectively applied with hydroxytyrosol acetate in respective concentrations, 0 μM, 0 μM, 10 μM, 50 μM, and 100 μM, all followed with an 24-hour incubation. Then, the last 4 groups of cells were respectively applied with 500 μM palmitic acid, the first was not, all followed with another 24-hour incubation. The detecting of mRNA levels corresponding to interleukin-6 (IL-6), matrix metalloproteinase-1 (MMP-1), intercellular adhesion molecule-1 (ICAM-1) and plasma plasminogen activator inhibitor-1 (PAI-1) were respectively carried out on each group of cells by using reverse transcription RNA and real-time quantitative polymerase chain reaction (PCR), and the specific method is as follows:
The medium for cell culture in the wells was removed. 500 μL of TRIzol™ reagent was added to each well, and the culture plate was then shaken at room temperature for 5 minutes. Then the cells in the wells were collected and transferred to a 1.5 mL Eppendorf® (EP) tube. 200 μl (taking ⅕ of total volume of the substance in the EP tube) of chloroform was then added to the EP tube for extraction of protein. […] The concentration of the solution was measured by an ultraviolet spectrophotometer. […]

[2] = tested on: interleukin-6 (IL-6) mRNA; assay: mRNA level corresponding to IL-6 (RT-PCR) in HAECs; type: cell-based, human; conditions: 500 μM palmitic acid, 24 h
Procedure: as §1, with “The experiments were performed on three experimental groups of cells: (1) control group; (2) 500 μM palmitic acid treatment group; and (3) hydroxytyrosol acetate protection group.” left out
as §2, with “Then, the last 4 groups of cells were respectively applied with 500 μM palmitic acid, the first was not, all followed with another 24-hour incubation.” left out
(§3) The medium for cell culture in the wells was removed. […] The concentration of the solution was measured by an ultraviolet spectrophotometer. […]

[3] = tested on: mitochondrial membrane fusion-related proteins Mfn1, Mfn2; assay: Western blot of mitochondrial membrane fusion-related proteins in HAECs; type: cell-based, human
Procedure: as §1, with “group. […]” for “group.”
The medium for cell culture in the wells was removed. […] The supernatants were collected, and the proteins therein were quantified by bicinchoninic acid (BCA) assay, and normalized. […]
10 μg of the extracted proteins were subjected to gel electrophoresis with 10% acrylamide gel, and electrophoretic transferred onto a PVDF membrane, which were blocked, and incubated with a primary antibody at 4° C. overnight, free primary antibody was washed away. […] Target proteins were detected by chemiluminescence.

[4] = tested on: matrix metalloproteinase-1 (MMP-1) mRNA; assay: mRNA level corresponding to MMP-1 (RT-PCR) in HAECs; type: cell-based, human; conditions: 500 μM palmitic acid, 24 h
Procedure: as §1, with “The experiments were performed on three experimental groups of cells: (1) control group; (2) 500 μM palmitic acid treatment group; and (3) hydroxytyrosol acetate protection group.” left out
as §2, with “Then, the last 4 groups of cells were respectively applied with 500 μM palmitic acid, the first was not, all followed with another 24-hour incubation.” left out
as §3

[5] = tested on: reactive oxygen species in human aortic endothelial cells; assay: Detection of reactive oxygen species (H2DCF-DA) in HAECs; type: cell-based
Procedure: as §1
The cultured HAECs were divided into 3 different experimental groups, the control (Ctrl) group, the PA group, and the hydroxytyrosol acetate+PA (HTac+PA) group. The cells of the HTac+PA group were applied with hydroxytyrosol acetate in a concentration of 100 μM followed with a 24-hour incubation. Then, the cells of both the PA group and the HTac+PA group were applied with 500 μM palmitic acid, all followed with another 24-hour incubation.
After treating the cells with hydroxytyrosol acetate and palmitic acid, and discarding the medium, the cells were rinsed once with PBS. […] The supernatant was collected and measured by a microplate reader.

[6] = tested on: human aortic endothelial cells (HAECs); assay: MTT assay, relative cell viability of human aortic endothelial cells; type: cell-based
Procedure: as §1
The HAECs that were previously cultured in a 12-well cell culture plate were divided into 4 different experimental groups and respectively applied with hydroxytyrosol acetate in different concentrations, 0 μM, 10 μM, 50 μM, and 100 μM, all followed with an 24-hour incubation. […]
An MTT assay was performed to all groups of cells. […] The absorbance was measured at a wavelength of 490 nm in a spectrophotometer. The absorbance of this colored solution can be quantified by measuring at a certain wavelength (usually between 500 and 600 nm) by a spectrophotometer.

[7] = 100 μM, 24 h pre-treatment, then 500 μM palmitic acid 24 h

Compound | inflammatory cytokines IL-6, MMP-1, ICAM-1 and PAI-1 versus control group ([1]; 500 μM palmitic acid, 24 h) | increase of mRNA level corresponding to IL-6 versus control [2] | expression of mitochondrial membrane fusion-related proteins Mfn1, Mfn2 ([3]; 500 μM palmitic acid, 24 h) | increase of mRNA level corresponding to MMP-1 versus control [4] | production of reactive oxygen species ROS ([5]; 500 μM palmitic acid, 24 h) | inhibition of the palmitic acid-induced inflammatory response (mRNA IL-6, MMP-1, ICAM-1, PAI-1) ([1]; 50 μM, 24 h pre-treatment, then 500 μM palmitic acid 24 h) | inhibitory effect on the palmitic acid-induced inflammatory response (mRNA IL-6, MMP-1, ICAM-1, PAI-1) ([1]; 100 μM, 24 h pre-treatment, then 500 μM palmitic acid 24 h, compared with 50 μM) | expression of Mfn2 [3, 7] | proliferation of human aortic endothelial cells ([6]; 100 μM hydroxytyrosol acetate, 24 h) | toxic and side effects on human aortic endothelial cells ([6]; HAECs, 0-100 μM, FIG. 1) | production of excessive reactive oxygen species induced by palmitic acid [5, 7]
CCCCCCCCCCCCCCCC(=O)O [palmitic acid, reference compound] | significantly higher | about 20 times | reducing | about 10 times | a large amount | – | – | – | – | – | –
hydroxytyrosol acetate | – | – | – | – | – | significant inhibition | more obvious | significantly increasing | promoted | no toxic and side effects | significantly inhibit
